# PubChem BioAssay (NCI)
# Where “and” joins values, the source holds several entries; their conditions need not be identical. Equal entries are not always repeated.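 Growth conditions: 96-well plates. Treatment: test compound, 48 hours, 5 concentrations. Analysis: linear interpolation between bracketing concentrations; unreached endpoints set to highest concentration. Abbreviation: GI50, concentration required for 50% inhibition of growth. TGI: concentration producing complete growth inhibition.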
# Assays:
# Experiment in all cases: NCI anticancer screen, dose series, 48 h
# HOP-92 NSCLC = tested on: HOP-92 NSCLC
# HL-60(TB) leukemia = tested on: HL-60(TB) leukemia
# SN12C renal = tested on: SN12C renal
# HCC-2998 colon = tested on: HCC-2998 colon
# A498 renal = tested on: A498 renal
# CAKI-1 renal = tested on: CAKI-1 renal
# UACC-257 melanoma = tested on: UACC-257 melanoma
# OVCAR-5 ovarian = tested on: OVCAR-5 ovarian
# U251 CNS = tested on: U251 CNS
# COLO 205 colon = tested on: COLO 205 colon
# A549 NSCLC = tested on: A549 NSCLC
# NCI-H460 lung = tested on: NCI-H460 lung
# MALME-3M melanoma = tested on: MALME-3M melanoma
# OVCAR-8 ovarian = tested on: OVCAR-8 ovarian
# TK-10 renal = tested on: TK-10 renal
# SNB-75 CNS = tested on: SNB-75 CNS
# NCI-H522 lung = tested on: NCI-H522 lung
# BT-549 breast = tested on: BT-549 breast
# T-47D breast = tested on: T-47D breast
# SK-MEL-28 melanoma = tested on: SK-MEL-28 melanoma
# UACC-62 melanoma = tested on: UACC-62 melanoma
# SW-620 colon = tested on: SW-620 colon
# SK-MEL-2 melanoma = tested on: SK-MEL-2 melanoma
# SNB-19 CNS = tested on: SNB-19 CNS
# NCI/ADR-RES ovarian = tested on: NCI/ADR-RES ovarian
# HCT-15 colon = tested on: HCT-15 colon
# NCI-H23 lung = tested on: NCI-H23 lung
# RXF 393 renal = tested on: RXF 393 renal
# OVCAR-4 ovarian = tested on: OVCAR-4 ovarian
# 786-0 renal = tested on: 786-0 renal
# SK-OV-3 ovarian = tested on: SK-OV-3 ovarian
# MDA-MB-231 breast = tested on: MDA-MB-231 breast
# SF-295 CNS = tested on: SF-295 CNS
# HS 578T breast = tested on: HS 578T breast
# UO-31 renal = tested on: UO-31 renal
# MOLT-4 leukemia = tested on: MOLT-4 leukemia
# EKVX NSCLC = tested on: EKVX NSCLC
# PC-3 prostate = tested on: PC-3 prostate
# CCRF-CEM leukemia = tested on: CCRF-CEM leukemia
# NCI-H226 lung = tested on: NCI-H226 lung
# SK-MEL-5 melanoma = tested on: SK-MEL-5 melanoma
# SR leukemia = tested on: SR leukemia
# SF-539 CNS = tested on: SF-539 CNS
# K-562 leukemia = tested on: K-562 leukemia
# HCT-116 colon = tested on: HCT-116 colon
# MCF7 breast = tested on: MCF7 breast
# MDA-MB-435 = tested on: MDA-MB-435
# HOP-62 NSCLC = tested on: HOP-62 NSCLC
# M14 melanoma = tested on: M14 melanoma
# RPMI-8226 leukemia = tested on: RPMI-8226 leukemia
# IGROV1 ovarian = tested on: IGROV1 ovarian
# HT29 colon = tested on: HT29 colon
# LOX IMVI melanoma = tested on: LOX IMVI melanoma
# ACHN renal = tested on: ACHN renal
# DU-145 prostate = tested on: DU-145 prostate
# SF-268 CNS = tested on: SF-268 CNS
smiles,measurement,setting,value
COc1cc(C)c(-c2ccc(=O)c(OC)cc2C)c(OC)c1OC,GI50,HOP-92 NSCLC,> 100 µM and 10.2 µM
same,TGI,HOP-92 NSCLC,> 100 µM
same,GI50,HL-60(TB) leukemia,> 100 µM and 21 µM
same,TGI,HL-60(TB) leukemia,> 100 µM and 94.6 µM
same,GI50,SN12C renal,> 100 µM and 38 µM
same,TGI,SN12C renal,> 100 µM
same,GI50,HCC-2998 colon,> 100 µM and 33 µM
same,TGI,HCC-2998 colon,> 100 µM
same,GI50,A498 renal,> 100 µM and 14 µM
same,TGI,A498 renal,> 100 µM and 52.5 µM
same,GI50,CAKI-1 renal,> 100 µM and 19.5 µM
same,TGI,CAKI-1 renal,> 100 µM
same,GI50,UACC-257 melanoma,> 100 µM and 71.3 µM
same,TGI,UACC-257 melanoma,> 100 µM
same,GI50,OVCAR-5 ovarian,> 100 µM and 41.8 µM
same,TGI,OVCAR-5 ovarian,> 100 µM
same,GI50,U251 CNS,> 100 µM and 30.9 µM
same,TGI,U251 CNS,> 100 µM
same,GI50,COLO 205 colon,> 100 µM and 21.8 µM
same,TGI,COLO 205 colon,> 100 µM and 58.6 µM
same,GI50,A549 NSCLC,> 100 µM and 35.5 µM
same,TGI,A549 NSCLC,> 100 µM
same,GI50,NCI-H460 lung,> 100 µM and 31.7 µM
same,TGI,NCI-H460 lung,> 100 µM
same,GI50,MALME-3M melanoma,> 100 µM and 37.8 µM
same,TGI,MALME-3M melanoma,> 100 µM
same,GI50,OVCAR-8 ovarian,> 100 µM and 35.3 µM
same,TGI,OVCAR-8 ovarian,> 100 µM
same,GI50,TK-10 renal,> 100 µM
same,TGI,TK-10 renal,> 100 µM
same,GI50,SNB-75 CNS,39.4 µM and 5.4 µM
same,TGI,SNB-75 CNS,> 100 µM and 43.4 µM
same,GI50,NCI-H522 lung,> 100 µM and 20.2 µM
same,TGI,NCI-H522 lung,> 100 µM and 70.1 µM
same,GI50,BT-549 breast,> 100 µM and 15.2 µM
same,TGI,BT-549 breast,> 100 µM
same,GI50,T-47D breast,> 100 µM and 26.3 µM
same,TGI,T-47D breast,> 100 µM
same,GI50,SK-MEL-28 melanoma,> 100 µM
same,TGI,SK-MEL-28 melanoma,> 100 µM
same,GI50,UACC-62 melanoma,> 100 µM and 16.6 µM
same,TGI,UACC-62 melanoma,> 100 µM
same,GI50,SW-620 colon,> 100 µM and 27.9 µM
same,TGI,SW-620 colon,> 100 µM
same,GI50,SK-MEL-2 melanoma,> 100 µM and 20.5 µM
same,TGI,SK-MEL-2 melanoma,> 100 µM
same,GI50,SNB-19 CNS,> 100 µM and 29.3 µM
same,TGI,SNB-19 CNS,> 100 µM
same,GI50,NCI/ADR-RES ovarian,> 100 µM and 27.9 µM
same,TGI,NCI/ADR-RES ovarian,> 100 µM
same,GI50,HCT-15 colon,> 100 µM and 12.9 µM
same,TGI,HCT-15 colon,> 100 µM
same,GI50,NCI-H23 lung,> 100 µM and 46.9 µM
same,TGI,NCI-H23 lung,> 100 µM
same,GI50,RXF 393 renal,> 100 µM and 21.1 µM
same,TGI,RXF 393 renal,> 100 µM and 76.5 µM
same,GI50,OVCAR-4 ovarian,> 100 µM and 92.2 µM
same,TGI,OVCAR-4 ovarian,> 100 µM
same,GI50,786-0 renal,> 100 µM and 46.2 µM
same,TGI,786-0 renal,> 100 µM
same,GI50,SK-OV-3 ovarian,> 100 µM and 27.1 µM
same,TGI,SK-OV-3 ovarian,> 100 µM
same,GI50,MDA-MB-231 breast,> 100 µM and 23.5 µM
same,TGI,MDA-MB-231 breast,> 100 µM
same,GI50,SF-295 CNS,> 100 µM and 22.9 µM
same,TGI,SF-295 CNS,> 100 µM
same,GI50,HS 578T breast,> 100 µM and 15.9 µM
same,TGI,HS 578T breast,> 100 µM and 64.1 µM
same,GI50,UO-31 renal,> 100 µM and 45.4 µM
same,TGI,UO-31 renal,> 100 µM
same,GI50,MOLT-4 leukemia,> 100 µM and 36 µM
same,TGI,MOLT-4 leukemia,> 100 µM
same,GI50,EKVX NSCLC,> 100 µM and 66.5 µM
same,TGI,EKVX NSCLC,> 100 µM
same,GI50,PC-3 prostate,> 100 µM and 31.9 µM
same,TGI,PC-3 prostate,> 100 µM
same,GI50,CCRF-CEM leukemia,> 100 µM and 29.7 µM
same,TGI,CCRF-CEM leukemia,> 100 µM
same,GI50,NCI-H226 lung,> 100 µM and 86.5 µM
same,TGI,NCI-H226 lung,> 100 µM
same,GI50,SK-MEL-5 melanoma,> 100 µM and 46.1 µM
same,TGI,SK-MEL-5 melanoma,> 100 µM
same,TGI,SR leukemia,> 100 µM
same,GI50,SF-539 CNS,> 100 µM and 25.8 µM
same,TGI,SF-539 CNS,> 100 µM
same,TGI,K-562 leukemia,> 100 µM
same,GI50,HCT-116 colon,> 100 µM and 25 µM
same,TGI,HCT-116 colon,> 100 µM
same,GI50,MCF7 breast,> 100 µM and 25.3 µM
same,TGI,MCF7 breast,> 100 µM
same,TGI,MDA-MB-435,> 100 µM and 15.3 µM
same,GI50,HOP-62 NSCLC,> 100 µM and 34.3 µM
same,TGI,HOP-62 NSCLC,> 100 µM
same,GI50,M14 melanoma,> 100 µM and 17.3 µM
same,TGI,M14 melanoma,> 100 µM
same,GI50,RPMI-8226 leukemia,> 100 µM and 41.4 µM
same,TGI,RPMI-8226 leukemia,> 100 µM
same,GI50,IGROV1 ovarian,> 100 µM and 47.3 µM
same,TGI,IGROV1 ovarian,> 100 µM
same,GI50,HT29 colon,> 100 µM and 25.2 µM
same,TGI,HT29 colon,> 100 µM and 93.5 µM
same,TGI,LOX IMVI melanoma,> 100 µM
same,GI50,ACHN renal,> 100 µM and 85.1 µM
same,TGI,ACHN renal,> 100 µM
NC(N)=Nc1ccc(Oc2cccc(Nc3ccc(Br)c(C(F)(F)F)c3)c2)cc1,GI50,HOP-92 NSCLC,0.829 µM
same,TGI,HOP-92 NSCLC,2.16 µM
same,GI50,A498 renal,1.49 µM
same,TGI,A498 renal,2.91 µM
same,GI50,DU-145 prostate,1.8 µM
same,TGI,DU-145 prostate,3.31 µM
same,GI50,CAKI-1 renal,1.6 µM
same,TGI,CAKI-1 renal,3.14 µM
same,GI50,OVCAR-5 ovarian,1.63 µM
same,TGI,OVCAR-5 ovarian,3.07 µM
same,GI50,NCI-H460 lung,1.87 µM
same,TGI,NCI-H460 lung,3.51 µM
same,GI50,MALME-3M melanoma,1.8 µM
same,TGI,MALME-3M melanoma,4.04 µM
same,GI50,TK-10 renal,1.88 µM
same,TGI,TK-10 renal,4.11 µM
same,GI50,SNB-75 CNS,1.23 µM
same,TGI,SNB-75 CNS,2.56 µM
same,GI50,NCI-H522 lung,1.6 µM
same,TGI,NCI-H522 lung,3.35 µM
same,GI50,SK-MEL-28 melanoma,1.77 µM
same,TGI,SK-MEL-28 melanoma,3.22 µM
same,GI50,UACC-62 melanoma,1.77 µM
same,TGI,UACC-62 melanoma,3.28 µM
same,GI50,NCI/ADR-RES ovarian,14.6 µM
same,TGI,NCI/ADR-RES ovarian,37.5 µM
same,GI50,HCT-15 colon,2.05 µM
same,TGI,HCT-15 colon,4.83 µM
same,GI50,NCI-H23 lung,1.67 µM
same,TGI,NCI-H23 lung,3.37 µM
same,GI50,RXF 393 renal,1.75 µM
same,TGI,RXF 393 renal,3.27 µM
same,GI50,786-0 renal,1.6 µM
same,TGI,786-0 renal,3.12 µM
same,GI50,SK-OV-3 ovarian,2.11 µM
same,TGI,SK-OV-3 ovarian,5.12 µM
same,GI50,UO-31 renal,3.08 µM
same,TGI,UO-31 renal,11.5 µM
same,GI50,PC-3 prostate,1.4 µM
same,TGI,PC-3 prostate,2.73 µM
same,GI50,CCRF-CEM leukemia,1.97 µM
same,TGI,CCRF-CEM leukemia,5.5 µM
same,GI50,SF-268 CNS,1.68 µM
same,TGI,SF-268 CNS,3.45 µM
same,GI50,SF-539 CNS,1.63 µM
same,TGI,SF-539 CNS,3.09 µM
same,GI50,M14 melanoma,1.69 µM
same,TGI,M14 melanoma,3.29 µM
same,GI50,RPMI-8226 leukemia,1.97 µM
same,TGI,RPMI-8226 leukemia,4.61 µM
same,GI50,IGROV1 ovarian,1.19 µM
same,TGI,IGROV1 ovarian,2.76 µM
same,GI50,HT29 colon,1.56 µM
same,TGI,HT29 colon,3.12 µM
same,GI50,ACHN renal,2.69 µM
same,TGI,ACHN renal,7.84 µM
